Measurements taken from PubChem BioAssay (NCI).
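The compound was tested at five concentrations on cells cultured in 96-well plates, with a 48-hour exposure period. GI50: concentration for 50% inhibition of growth. Definition used: TGI = concentration required for complete inhibition of growth.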

Assays:
Test in all cases: NCI-60 cell line screen, 48 h
HOP-62 NSCLC = tested on: HOP-62 NSCLC
K-562 leukemia = tested on: K-562 leukemia
UO-31 renal = tested on: UO-31 renal
HCT-15 colon = tested on: HCT-15 colon
MOLT-4 leukemia = tested on: MOLT-4 leukemia
RXF 393 renal = tested on: RXF 393 renal
UACC-257 melanoma = tested on: UACC-257 melanoma
NCI-H226 lung = tested on: NCI-H226 lung
NCI-H23 lung = tested on: NCI-H23 lung
MDA-MB-435 = tested on: MDA-MB-435
SN12C renal = tested on: SN12C renal
OVCAR-8 ovarian = tested on: OVCAR-8 ovarian
SNB-75 CNS = tested on: SNB-75 CNS
HS 578T breast = tested on: HS 578T breast
UACC-62 melanoma = tested on: UACC-62 melanoma
786-0 renal = tested on: 786-0 renal
SK-MEL-28 melanoma = tested on: SK-MEL-28 melanoma
MCF7 breast = tested on: MCF7 breast
RPMI-8226 leukemia = tested on: RPMI-8226 leukemia
HL-60(TB) leukemia = tested on: HL-60(TB) leukemia
MALME-3M melanoma = tested on: MALME-3M melanoma
TK-10 renal = tested on: TK-10 renal
NCI-H460 lung = tested on: NCI-H460 lung
NCI/ADR-RES ovarian = tested on: NCI/ADR-RES ovarian
U251 CNS = tested on: U251 CNS
BT-549 breast = tested on: BT-549 breast
OVCAR-5 ovarian = tested on: OVCAR-5 ovarian
CCRF-CEM leukemia = tested on: CCRF-CEM leukemia
LOX IMVI melanoma = tested on: LOX IMVI melanoma
SR leukemia = tested on: SR leukemia
OVCAR-3 ovarian = tested on: OVCAR-3 ovarian
A549 NSCLC = tested on: A549 NSCLC
IGROV1 ovarian = tested on: IGROV1 ovarian
SK-OV-3 ovarian = tested on: SK-OV-3 ovarian
SF-539 CNS = tested on: SF-539 CNS
OVCAR-4 ovarian = tested on: OVCAR-4 ovarian
HT29 colon = tested on: HT29 colon
M14 melanoma = tested on: M14 melanoma
SW-620 colon = tested on: SW-620 colon
SNB-19 CNS = tested on: SNB-19 CNS
SF-295 CNS = tested on: SF-295 CNS
SK-MEL-5 melanoma = tested on: SK-MEL-5 melanoma
EKVX NSCLC = tested on: EKVX NSCLC
SF-268 CNS = tested on: SF-268 CNS
PC-3 prostate = tested on: PC-3 prostate
KM12 colon = tested on: KM12 colon
SK-MEL-2 melanoma = tested on: SK-MEL-2 melanoma
ACHN renal = tested on: ACHN renal
HCC-2998 colon = tested on: HCC-2998 colon
T-47D breast = tested on: T-47D breast
COLO 205 colon = tested on: COLO 205 colon
MDA-MB-231 breast = tested on: MDA-MB-231 breast
NCI-H522 lung = tested on: NCI-H522 lung
A498 renal = tested on: A498 renal
DU-145 prostate = tested on: DU-145 prostate
HCT-116 colon = tested on: HCT-116 colon

CCCCCCCCCCCCCCCCCc1cc(Cl)nc(Cl)n1
TGI (HOP-62 NSCLC): > 100000 nM
TGI (K-562 leukemia): > 100 µM
TGI (UO-31 renal): > 100000 nM
TGI (HCT-15 colon): > 100000 nM
TGI (MOLT-4 leukemia): > 100 µM
TGI (RXF 393 renal): > 100000 nM
TGI (UACC-257 melanoma): > 100000 nM
TGI (NCI-H226 lung): > 100 µM
TGI (NCI-H23 lung): > 100000 nM
TGI (MDA-MB-435): > 100 µM
TGI (SN12C renal): > 100000 nM
TGI (OVCAR-8 ovarian): > 100000 nM
TGI (SNB-75 CNS): > 100 µM
TGI (HS 578T breast): > 100 µM
TGI (UACC-62 melanoma): > 100 µM
TGI (786-0 renal): > 100000 nM
TGI (SK-MEL-28 melanoma): > 100 µM
TGI (MCF7 breast): > 100000 nM
TGI (RPMI-8226 leukemia): > 100 µM
TGI (HL-60(TB) leukemia): > 100 µM
TGI (MALME-3M melanoma): > 100 µM
TGI (TK-10 renal): > 100 µM
TGI (NCI-H460 lung): > 100 µM
TGI (NCI/ADR-RES ovarian): > 100 µM
TGI (U251 CNS): > 100000 nM
TGI (BT-549 breast): > 100000 nM
TGI (OVCAR-5 ovarian): > 100 µM
TGI (CCRF-CEM leukemia): > 100 µM
TGI (LOX IMVI melanoma): > 100000 nM
TGI (SR leukemia): > 100 µM
TGI (OVCAR-3 ovarian): > 100 µM
TGI (A549 NSCLC): > 100000 nM
TGI (IGROV1 ovarian): > 100000 nM
TGI (SK-OV-3 ovarian): > 100 µM
TGI (SF-539 CNS): > 100 µM
TGI (OVCAR-4 ovarian): > 100 µM
TGI (HT29 colon): > 100000 nM
TGI (M14 melanoma): > 100000 nM
TGI (SW-620 colon): > 100000 nM
TGI (SNB-19 CNS): > 100 µM
TGI (SF-295 CNS): > 100 µM
TGI (SK-MEL-5 melanoma): > 100 µM
TGI (EKVX NSCLC): > 100 µM
TGI (SF-268 CNS): > 100 µM
TGI (PC-3 prostate): > 100 µM
TGI (KM12 colon): > 100 µM
TGI (SK-MEL-2 melanoma): > 100000 nM
TGI (ACHN renal): > 100000 nM
TGI (HCC-2998 colon): > 100 µM

Nc1nc2ccccc2c2[nH]c3ccccc3c12
GI50 (T-47D breast): 1210 nM
TGI (T-47D breast): 2910 nM
GI50 (HOP-62 NSCLC): 1130 nM
TGI (HOP-62 NSCLC): 2440 nM
GI50 (UO-31 renal): 1310 nM
TGI (UO-31 renal): 2610 nM
GI50 (HCT-15 colon): 671 nM
TGI (HCT-15 colon): 2430 nM
GI50 (RXF 393 renal): 311 nM
TGI (RXF 393 renal): 1480 nM
GI50 (UACC-257 melanoma): 1640 nM
TGI (UACC-257 melanoma): 2990 nM
GI50 (NCI-H226 lung): 9.74 µM
TGI (NCI-H226 lung): 37.2 µM
GI50 (COLO 205 colon): 1070 nM
TGI (COLO 205 colon): 2330 nM
GI50 (NCI-H23 lung): 1370 nM
TGI (NCI-H23 lung): 2860 nM
GI50 (MDA-MB-435): 938 nM
TGI (MDA-MB-435): 3.16 µM
GI50 (SN12C renal): 1240 nM
TGI (SN12C renal): 2970 nM
GI50 (OVCAR-8 ovarian): 985 nM
TGI (OVCAR-8 ovarian): 2160 nM
GI50 (SNB-75 CNS): 5.49 µM
TGI (SNB-75 CNS): 16.4 µM
GI50 (UACC-62 melanoma): 13.6 µM
TGI (UACC-62 melanoma): 27.3 µM
GI50 (MDA-MB-231 breast): 1220 nM
TGI (MDA-MB-231 breast): 2570 nM
GI50 (786-0 renal): 1120 nM
TGI (786-0 renal): 2610 nM
GI50 (SK-MEL-28 melanoma): 1790 nM
TGI (SK-MEL-28 melanoma): 3.19 µM
GI50 (NCI-H522 lung): 901 nM
TGI (NCI-H522 lung): 2140 nM
GI50 (MCF7 breast): 1190 nM
TGI (MCF7 breast): 2550 nM
GI50 (A498 renal): 1160 nM
TGI (A498 renal): 2420 nM
GI50 (HL-60(TB) leukemia): 1980 nM
TGI (HL-60(TB) leukemia): 5.73 µM
GI50 (MALME-3M melanoma): 1610 nM
TGI (MALME-3M melanoma): 3.19 µM
GI50 (TK-10 renal): 1570 nM
TGI (TK-10 renal): 4.18 µM
GI50 (U251 CNS): 1200 nM
TGI (U251 CNS): 2430 nM
GI50 (BT-549 breast): 1260 nM
TGI (BT-549 breast): 2580 nM
GI50 (OVCAR-5 ovarian): 1840 nM
TGI (OVCAR-5 ovarian): 4.11 µM
GI50 (LOX IMVI melanoma): 1050 nM
TGI (LOX IMVI melanoma): 2280 nM
GI50 (SR leukemia): 640 nM
TGI (SR leukemia): 4.8 µM
GI50 (OVCAR-3 ovarian): 1420 nM
TGI (OVCAR-3 ovarian): 4.37 µM
GI50 (A549 NSCLC): 1090 nM
TGI (A549 NSCLC): 2370 nM
GI50 (IGROV1 ovarian): 806 nM
TGI (IGROV1 ovarian): 2420 nM
GI50 (SK-OV-3 ovarian): 4.91 µM
TGI (SK-OV-3 ovarian): 18.9 µM
GI50 (SF-539 CNS): 1760 nM
TGI (SF-539 CNS): 3.37 µM
GI50 (OVCAR-4 ovarian): 1500 nM
TGI (OVCAR-4 ovarian): 3.52 µM
GI50 (HT29 colon): 509 nM
TGI (HT29 colon): 1930 nM
GI50 (M14 melanoma): 1600 nM
TGI (M14 melanoma): 2950 nM
GI50 (SW-620 colon): 384 nM
TGI (SW-620 colon): 1960 nM
GI50 (DU-145 prostate): 1940 nM
TGI (DU-145 prostate): 10.5 µM
GI50 (SNB-19 CNS): 1100 nM
TGI (SNB-19 CNS): 3.71 µM
GI50 (SK-MEL-5 melanoma): 1640 nM
TGI (SK-MEL-5 melanoma): 3.01 µM
GI50 (HCT-116 colon): 499 nM
TGI (HCT-116 colon): 1830 nM
GI50 (EKVX NSCLC): 3.19 µM
TGI (EKVX NSCLC): 11.6 µM
GI50 (SF-268 CNS): 1970 nM
TGI (SF-268 CNS): 7.23 µM
GI50 (KM12 colon): 1040 nM
TGI (KM12 colon): 3.26 µM
GI50 (SK-MEL-2 melanoma): 1540 nM
TGI (SK-MEL-2 melanoma): 2880 nM
GI50 (ACHN renal): 485 nM
TGI (ACHN renal): 1790 nM
